Some test systems named below: UACC-62; OVCAR-5; MDA-N; SF-539; PC-3; SF-268; HT-29; DU-145; MDA-MB-435; HCT-116; SF-295; T47D; BT-549; OVCAR-8; MDA-MB-231; Hs-578T; HL-60.
Common to all, as to experiment: inhibition of tumour cell growth, NCI panel, 48 h

Values joined by “and” are separate entries in the source; they are usually repeats but may differ in a detail not shown here. Equal values may be shown once.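 Growth conditions: 96-well plates. Treatment: test compound, 48 hours, 5 concentrations. Analysis: linear interpolation between bracketing concentrations; unreached endpoints set to highest concentration. GI50 = concentration required for 50% inhibition of growth.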 Active and inactive are the calls of the source. Cut-off read from the data, not from the text of the source: active = GI50 up to about 1.1 µM and inactive = higher.

Results on 13 compounds are retold here after ChEMBL document CHEMBL1201862, “PubChem BioAssay data set” (2004).

For `COc1ccc2c(c1)-c1oc3ccccc3c(=O)c1CO2`, the GI50 was 38.1 µM (inactive) in the assay on UACC-62; > 100 µM (inactive) in the assay on OVCAR-5; 23.4 µM (inactive) with MDA-N; 35.5 µM (inactive) with SF-539; 31.9 µM (inactive) in the assay with PC-3; 25 µM (inactive) in the assay with SF-268. In addition, the GI50 was 31.1 µM (inactive) in the assay with HT-29; 40.1 µM (inactive) in the assay on DU-145; 25.6 µM (inactive) in the assay on MDA-MB-435; 28.8 µM (inactive) with HCT-116; 69 µM (inactive) in the assay with SF-295; 29.9 µM (inactive) in the assay with T47D. Moreover, the GI50 in the assay with BT-549 is 37.3 µM (inactive); in the assay on OVCAR-8, 39.1 µM (inactive); in the assay with MDA-MB-231, 36.3 µM (inactive).
Consider `Clc1ccc(CCn2ccc3ccccc32)c(Cl)c1`, for which the GI50 in the assay on UACC-62, in the assay with OVCAR-5, in the assay with Hs-578T, in the assay with HL-60, in the assay with SF-539 and with PC-3 was > 100 µM (inactive) throughout. Also, the GI50 in the assay on SF-268, in the assay on HT-29, in the assay on DU-145, in the assay with MDA-MB-435, with HCT-116 and with SF-295 was > 100 µM (inactive) in each case. The GI50 with BT-549, in the assay on OVCAR-8 and with MDA-MB-231 was > 100 µM (inactive) throughout.
For the compound `CN(C)N1C(=O)C(=O)N(c2cccc3ccccc23)C1=O`, the GI50 with UACC-62, with OVCAR-5, with MDA-N, in the assay with Hs-578T, in the assay on HL-60 and with SF-539 was > 10 µM (inactive) throughout. The GI50 with PC-3, in the assay on SF-268, in the assay on HT-29, with DU-145, in the assay with MDA-MB-435 and in the assay with HCT-116 was > 10 µM (inactive) throughout. Further, the GI50 in the assay on SF-295, in the assay with T47D, in the assay with OVCAR-8 and with MDA-MB-231 was > 10 µM (inactive) each time.
For `COc1ccc(Nc2nc(N)c(C(=O)c3c[nH]c4ccccc34)s2)cc1`, the GI50 in the assay on UACC-62 is 5.79 µM (inactive); in the assay with OVCAR-5, 3.13 µM (inactive); in the assay on MDA-N it was 0.31 µM (active); in the assay on HL-60 it was 1.07 µM (active); in the assay on SF-539, 2.42 µM (inactive); with PC-3 it was 2.15 µM (inactive). Also, the GI50 is 6.84 µM (inactive) in the assay with SF-268; 0.583 µM (active) in the assay with HT-29; 2.2 µM (inactive) with DU-145; 0.161 µM (active) with MDA-MB-435; 0.92 µM (active) in the assay on HCT-116; 0.5 µM (active) in the assay with SF-295. Besides, the GI50 is 3.6 µM (inactive) in the assay with T47D, 2.43 µM (inactive) in the assay on BT-549, 2.36 µM (inactive) in the assay on OVCAR-8 and 9.91 µM (inactive) in the assay with MDA-MB-231.
On to `CN(C)CC(CO)(CN(C)C)CN(C)C`, for which the GI50 in the assay on UACC-62, in the assay with OVCAR-5, in the assay with MDA-N, in the assay with HL-60, in the assay with SF-539 and with PC-3 was > 100 µM (inactive) each time. Besides, the GI50 in the assay on SF-268, in the assay on HT-29, in the assay on DU-145, in the assay with HCT-116, with SF-295 and in the assay on BT-549 was > 100 µM (inactive) in each case. The GI50 in the assay with OVCAR-8 is > 100 µM (inactive).
In the case of `CC1(CO)COS(=O)OC1` (centres undefined), the GI50 with MDA-N, in the assay on Hs-578T, in the assay on PC-3, in the assay with SF-268, in the assay on HT-29 and in the assay with DU-145 was > 100 µM (inactive) each time. The GI50 with MDA-MB-435, in the assay with HCT-116, in the assay on SF-295, with T47D, in the assay on OVCAR-8 and with MDA-MB-231 was > 100 µM (inactive) throughout.
Regarding `c1ccc(/N=C(\N2CCCCC2)N(CCN2CCCCC2)c2ccccc2)cc1`, the GI50 with OVCAR-5 is 1.82 µM (inactive); with MDA-N it was 0.718 µM (active); in the assay on Hs-578T, 0.944 µM (active); in the assay on HL-60 it was 0.277 µM (active); in the assay on PC-3, 0.53 µM (active); in the assay with HT-29 it was 0.141 µM (active). The GI50 with DU-145 is 2.1 µM (inactive); with MDA-MB-435, 1.51 µM (inactive); in the assay on HCT-116, 0.0736 µM (active); in the assay with SF-295, 1.04 µM (active); in the assay on T47D it was 1.08 µM (active); in the assay with OVCAR-8, 2.01 µM (inactive). The GI50 with MDA-MB-231 is 1.39 µM (inactive).
For the compound `CC1=NC(=O)CNN1C1=NNC2(C(=O)N1)c1ccccc1-c1ccccc12`, the GI50 with UACC-62 is > 100 µM (inactive); in the assay on OVCAR-5, > 100 µM (inactive); with MDA-N, > 100 µM (inactive); with Hs-578T, 23.5 µM (inactive); with HL-60 it was > 100 µM (inactive); with SF-539 it was > 100 µM (inactive). Also, the GI50 with PC-3, in the assay with SF-268, with HT-29, in the assay on DU-145, in the assay on MDA-MB-435 and in the assay with HCT-116 was > 100 µM (inactive) in each case. Also, the GI50 in the assay with SF-295, with BT-549, in the assay on OVCAR-8 and in the assay with MDA-MB-231 was > 100 µM (inactive) throughout.
Consider `Cc1ccc(O)c(C(c2ccc([N+](=O)[O-])cc2)c2cc(C)ccc2O)c1`, for which the GI50 in the assay with UACC-62 was 7.4 µM (inactive); in the assay on OVCAR-5, 14.6 µM (inactive); in the assay on Hs-578T, 7.69 µM (inactive); with HL-60, 1.47 µM (inactive); in the assay on SF-539, 15.3 µM (inactive); in the assay on PC-3, 3.59 µM (inactive). In addition, the GI50 in the assay on SF-268 was 5.57 µM (inactive); with HT-29, 12.2 µM (inactive); in the assay on DU-145 it was 12.1 µM (inactive); in the assay on MDA-MB-435, 10.9 µM (inactive); in the assay with HCT-116, 14.4 µM (inactive); with SF-295, 14.5 µM (inactive). Moreover, the GI50 in the assay with T47D was 11.2 µM (inactive); in the assay with OVCAR-8, 11.7 µM (inactive); in the assay with MDA-MB-231, 12 µM (inactive).
For `O=C1OC(c2ccccc2)=N/C1=C\c1ccccc1`, the GI50 in the assay on UACC-62 was > 100 µM (inactive); in the assay with OVCAR-5, > 100 µM (inactive); in the assay with MDA-N it was 44.7 µM (inactive); with Hs-578T, 58.7 µM (inactive) and 36.7 µM (inactive); in the assay on HL-60 it was 29.5 µM (inactive) and 18.7 µM (inactive); in the assay with SF-539 it was 19 µM (inactive) and 21.1 µM (inactive). Moreover, the GI50 in the assay with PC-3 is > 100 µM (inactive); with DU-145, > 100 µM (inactive) and 59 µM (inactive); with MDA-MB-435, 64 µM (inactive) and 56 µM (inactive); with HCT-116, > 100 µM (inactive); with SF-295 it was 69 µM (inactive) and 68.2 µM (inactive); with T47D, > 100 µM (inactive). The GI50 was 38.8 µM (inactive) and 32.6 µM (inactive) with OVCAR-8; > 100 µM (inactive) in the assay on MDA-MB-231.
On to `CC12C3C4C1C1C2C3C41CO` (centres undefined), for which the GI50 in the assay on UACC-62, in the assay with OVCAR-5, in the assay with MDA-N, with HL-60, with SF-539 and in the assay on HT-29 was > 100 µM (inactive) in each case. Moreover, the GI50 in the assay with DU-145, in the assay with MDA-MB-435, in the assay with HCT-116, in the assay on SF-295, in the assay with OVCAR-8 and with MDA-MB-231 was > 100 µM (inactive) in each case.
`CC1=C2c3ccccc3N(C(=O)/C=C/C(=O)O)[C@H]2[C@H]2C(=O)OC(=O)[C@H]2C1`: the GI50 in the assay on UACC-62, in the assay with OVCAR-5, in the assay with MDA-N, with Hs-578T, in the assay with HL-60 and in the assay on SF-539 was > 10 µM (inactive) each time. Also, the GI50 with PC-3, in the assay on SF-268, with HT-29, with DU-145, in the assay with MDA-MB-435 and in the assay with HCT-116 was > 10 µM (inactive) in each case. The GI50 in the assay on SF-295, in the assay with T47D, in the assay with OVCAR-8 and with MDA-MB-231 was > 10 µM (inactive) throughout.
In the case of `O=C(CCC(NC(=O)OCc1ccccc1)C(=O)OCc1ccccc1)Nc1cccc(OCc2ccccc2)c1` (centres undefined), the GI50 is 32.8 µM (inactive) in the assay with UACC-62; 28.6 µM (inactive) in the assay on OVCAR-5; 32.1 µM (inactive) in the assay with MDA-N; 18.4 µM (inactive) in the assay with Hs-578T; 15.4 µM (inactive) in the assay on HL-60; 19.2 µM (inactive) in the assay with SF-539. Moreover, the GI50 is 13.2 µM (inactive) in the assay on PC-3; 28.6 µM (inactive) with SF-268; 29.9 µM (inactive) in the assay with HT-29; 28.4 µM (inactive) with DU-145; 20 µM (inactive) in the assay on MDA-MB-435; 19.2 µM (inactive) in the assay on HCT-116. Moreover, the GI50 with SF-295 is 59.6 µM (inactive); in the assay on T47D it was 19.5 µM (inactive); in the assay with OVCAR-8, 26.5 µM (inactive); in the assay on MDA-MB-231 it was 25.4 µM (inactive).
